The results in this text go back to PubChem BioAssay AID248 (DTP/NCI, 2004).

In this assay the test system is L1210 leukemia ip in BDF1 mice, survival T/C. Nature of the assay: NCI In Vivo Anticancer Drug Screen. Data for tumor model L1210 Leukemia (intraperitoneal) in B6D2F1 (BDF1) mice. As to conditions: endpoint: mean survival time, higher = longer survival. The procedure, abridged: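 Tumor cells were implanted, animals were treated, and survival was followed. The result divides the treated measurement by the vehicle-control measurement.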

The mark [1] stands for this setting: dose: 100.0 mg/kg/injection, schedule: Q01DX001 (ip), vehicle: saline.
Where [2] appears, read: dose: 100.0 mg/kg/injection, schedule: Q04DX002 (ip), vehicle: saline with Tween-80.
Setting [3] is: dose: 200.0 mg/kg/injection, schedule: Q04DX002 (ip), vehicle: saline with Tween-80.
The mark [4] stands for this setting: dose: 400.0 mg/kg/injection, schedule: Q04DX002 (ip), vehicle: saline with Tween-80.
The mark [5] stands for this setting: dose: 100.0 mg/kg/injection, schedule: Q01DX009 (ip), vehicle: Klucel (hydroxypropylcellulose) (HPC).
The mark [6] stands for this setting: dose: 100.0 mg/kg/injection, schedule: Q04DX003 (ip), vehicle: Klucel (hydroxypropylcellulose) (HPC).
The mark [7] stands for this setting: dose: 200.0 mg/kg/injection, schedule: Q01DX009 (ip), vehicle: Klucel (hydroxypropylcellulose) (HPC).
Setting [8] is: dose: 200.0 mg/kg/injection, schedule: Q04DX003 (ip), vehicle: Klucel (hydroxypropylcellulose) (HPC).
Setting [9] is: dose: 400.0 mg/kg/injection, schedule: Q01DX009 (ip), vehicle: Klucel (hydroxypropylcellulose) (HPC).
[10] abbreviates: dose: 400.0 mg/kg/injection, schedule: Q04DX003 (ip), vehicle: Klucel (hydroxypropylcellulose) (HPC).
The mark [11] stands for this setting: dose: 50.0 mg/kg/injection, schedule: Q01DX001 (ip), vehicle: carboxymethylcellulose (CMC).
Where [12] appears, read: dose: 100.0 mg/kg/injection, schedule: Q01DX001 (ip), vehicle: carboxymethylcellulose (CMC).
Setting [13] is: dose: 200.0 mg/kg/injection, schedule: Q01DX001 (ip), vehicle: carboxymethylcellulose (CMC).
[14] abbreviates: dose: 100.0 mg/kg/injection, schedule: Q04DX003 (ip), vehicle: saline.
Where [15] appears, read: dose: 200.0 mg/kg/injection, schedule: Q04DX003 (ip), vehicle: saline.
Setting [16] is: dose: 400.0 mg/kg/injection, schedule: Q04DX003 (ip), vehicle: saline.
Where [17] appears, read: dose: 100.0 mg/kg/injection, schedule: Q04DX003 (ip), vehicle: saline with Tween-80.

Several values for one entry are separate records, joined by “and”; a condition that tells them apart may be missing. Equal entries are not always repeated. Inconclusive results and toxic doses are left out.

For `CC1(C)C2CC=C(CCO)C1C2` (configuration not stated), the T/C under setting [1] is 98 % of control; the T/C under setting [2] is 98 % of control; the T/C (dose: 200.0 mg/kg/injection, schedule: Q01DX001 (ip), vehicle: saline) is 93 % of control; the T/C under setting [3] was 110 % of control; the T/C under setting [4] is 93 % of control.
As for `CCCCCCCCCCCCCCCCCCCC/C=C/C1CC(=O)OC1=O` (configuration not stated), the T/C under setting [5] is 98 % of control; the T/C under setting [6] was 95 % of control; the T/C under setting [7] was 96 % of control; the T/C under setting [8] is 98 % of control; the T/C under setting [9] was 96 % of control; the T/C under setting [10] was 113 % of control.
For the compound `N#CC(N)c1ccccc1` (configuration not stated), under “dose: 75.0 mg/kg/injection, schedule: Q01DX001 (ip), vehicle: saline”, the T/C is 103 % of control.
As for `CC(=O)O/N=C1\c2ccccc2-c2ccc([N+](=O)[O-])cc21`, the T/C runs as follows: (dose: 75.0 mg/kg/injection, schedule: Q01DX009 (ip), vehicle: Klucel (hydroxypropylcellulose) (HPC)) 93 % of control; under setting [6], 97 % of control; (dose: 150.0 mg/kg/injection, schedule: Q01DX009 (ip), vehicle: Klucel (hydroxypropylcellulose) (HPC)) 86 % of control; under setting [8], 95 % of control; (dose: 300.0 mg/kg/injection, schedule: Q01DX009 (ip), vehicle: Klucel (hydroxypropylcellulose) (HPC)) 86 % of control; under setting [10], 100 % of control.
Consider `Nn1cnc2c(SCc3ccccc3)ncnc21`, for which the T/C runs as follows: under setting [11], 101 % of control; (dose: 62.0 mg/kg/injection, schedule: Q01DX015 (ip), vehicle: carboxymethylcellulose (CMC)) 115 % of control; (dose: 93.0 mg/kg/injection, schedule: Q01DX015 (ip), vehicle: carboxymethylcellulose (CMC)) 121 % of control; under setting [12], 101 % of control; (dose: 140.0 mg/kg/injection, schedule: Q01DX015 (ip), vehicle: carboxymethylcellulose (CMC)) 158 % of control; under setting [13], 122 % of control.
In the case of `Cc1cc(OC(=O)Nc2ccc(F)cc2)c(C(C)C)cc1Cl`, the T/C is 90 % of control under setting [11]; 99 % of control and 101 % of control (dose: 50.0 mg/kg/injection, schedule: Q01DX009 (ip), vehicle: carboxymethylcellulose (CMC)); 93 % of control and 96 % of control (dose: 50.0 mg/kg/injection, schedule: Q04DX002 (ip), vehicle: carboxymethylcellulose (CMC)); 103 % of control under setting [12]; 96 % of control and 99 % of control (dose: 100.0 mg/kg/injection, schedule: Q01DX009 (ip), vehicle: carboxymethylcellulose (CMC)); 100 % of control and 106 % of control (dose: 100.0 mg/kg/injection, schedule: Q04DX002 (ip), vehicle: carboxymethylcellulose (CMC)). Further, the T/C runs as follows: under setting [13], 92 % of control; (dose: 200.0 mg/kg/injection, schedule: Q01DX009 (ip), vehicle: carboxymethylcellulose (CMC)) 94 % of control and 95 % of control; (dose: 200.0 mg/kg/injection, schedule: Q04DX002 (ip), vehicle: carboxymethylcellulose (CMC)) 95 % of control and 100 % of control.
`COc1ccccc1OC`: the T/C was 97 % of control under setting [14], 103 % of control under setting [15] and 86 % of control under setting [16].
Consider `CC1=CCC2C(=O)C=CC(=O)C2C1` (configuration not stated), for which the T/C runs as follows: (dose: 5.0 mg/kg/injection, schedule: Q01DX009 (ip), vehicle: Klucel (hydroxypropylcellulose) (HPC)) 98 % of control; (dose: 10.0 mg/kg/injection, schedule: Q01DX001 (ip), vehicle: carboxymethylcellulose (CMC)) 107 % of control; (dose: 10.0 mg/kg/injection, schedule: Q01DX009 (ip), vehicle: Klucel (hydroxypropylcellulose) (HPC)) 89 % of control; (dose: 20.0 mg/kg/injection, schedule: Q01DX001 (ip), vehicle: carboxymethylcellulose (CMC)) 109 % of control; (dose: 20.0 mg/kg/injection, schedule: Q01DX009 (ip), vehicle: Klucel (hydroxypropylcellulose) (HPC)) 96 % of control; (dose: 40.0 mg/kg/injection, schedule: Q01DX001 (ip), vehicle: carboxymethylcellulose (CMC)) 107 % of control. Moreover, under “dose: 80.0 mg/kg/injection, schedule: Q01DX001 (ip), vehicle: carboxymethylcellulose (CMC)”, the T/C was 109 % of control.
With `Cc1c([N+](=O)[O-])cc(NC(=O)/C=C\C(=O)O)cc1[N+](=O)[O-]`, the T/C is, setting by setting: under setting [17], 113 % of control; (dose: 200.0 mg/kg/injection, schedule: Q04DX003 (ip), vehicle: saline with Tween-80) 113 % of control; (dose: 400.0 mg/kg/injection, schedule: Q04DX003 (ip), vehicle: saline with Tween-80) 109 % of control.
For the compound `Cc1ccc(C(=O)NS(=O)(=O)c2ccc(C)cc2)cc1`, the T/C reads like this: under setting [5], 91 % of control; under setting [6], 101 % of control; under setting [7], 105 % of control; under setting [8], 103 % of control; under setting [10], 104 % of control.
On to `Cc1ccc2ccccc2c1CC(=O)NN`, for which the T/C under setting [6] is 102 % of control, the T/C under setting [8] is 104 % of control and the T/C under setting [10] was 104 % of control.
Regarding `Cc1csc[n+]1Cc1ccc([N+](=O)[O-])cc1`, the T/C runs as follows: (dose: 5.0 mg/kg/injection, schedule: Q01DX001 (ip), vehicle: saline) 100 % of control; (dose: 10.0 mg/kg/injection, schedule: Q01DX001 (ip), vehicle: saline) 102 % of control; (dose: 20.0 mg/kg/injection, schedule: Q01DX001 (ip), vehicle: saline) 102 % of control; (dose: 40.0 mg/kg/injection, schedule: Q01DX001 (ip), vehicle: saline) 103 % of control; (dose: 80.0 mg/kg/injection, schedule: Q01DX001 (ip), vehicle: saline) 100 % of control; under setting [1], 98 % of control.
As for `CCCOc1cc(C)c2cc(Cc3cc(C)c4nc(OCCC)cc(C)c4c3)cc(C)c2n1`, the T/C is 87 % of control (dose: 100.0 mg/kg/injection, schedule: Q01DX001 (ip), vehicle: other); 95 % of control (dose: 200.0 mg/kg/injection, schedule: Q01DX001 (ip), vehicle: other); 101 % of control (dose: 400.0 mg/kg/injection, schedule: Q01DX001 (ip), vehicle: other).
On to `O=C1CCCC/C1=C/c1ccccc1Cl`, for which the T/C is, setting by setting: under setting [5], 97 % of control; under setting [6], 104 % of control; under setting [7], 105 % of control; under setting [8], 104 % of control; under setting [9], 100 % of control; under setting [10], 97 % of control.
Turning to `CCCCCC(CN(C)C)C(=O)/C=C/c1ccc(Cl)c(Cl)c1` (configuration not stated), the T/C is, setting by setting: (dose: 12.5 mg/kg/injection, schedule: Q04DX003 (ip), vehicle: acetone) 95 % of control; (dose: 25.0 mg/kg/injection, schedule: Q04DX003 (ip), vehicle: acetone) 92 % of control.
With `CCOC(=O)C(C(=S)Nc1ccccc1)=S(C)C`, the T/C under setting [2] is 87 % of control, the T/C under setting [3] is 87 % of control and the T/C under setting [4] was 91 % of control.
For `CN(C)CCCN1c2ccc(O)cc2Sc2ccc(Cl)cc21`, the T/C is, setting by setting: (dose: 3.1 mg/kg/injection, schedule: Q01DX009 (ip), vehicle: other) 90 % of control; (dose: 6.2 mg/kg/injection, schedule: Q01DX009 (ip), vehicle: other) 94 % of control; (dose: 12.5 mg/kg/injection, schedule: Q01DX009 (ip), vehicle: other) 94 % of control; (dose: 25.0 mg/kg/injection, schedule: Q01DX009 (ip), vehicle: other) 97 % of control; (dose: 50.0 mg/kg/injection, schedule: Q04DX003 (ip), vehicle: saline with Tween-80) 103 % of control; under setting [17], 103 % of control.
As to `CCCCCc1ccc(C(C)=O)cc1`, the T/C is 100 % of control under setting [14], 114 % of control under setting [15] and 114 % of control under setting [16].
With `CCOC(=O)C1C(=O)C(CN(CCCl)CCCl)C(=O)C(C(=O)OCC)C1c1ccc(OC)c(OC)c1OC` (configuration not stated), the T/C is 90 % of control under setting [5], 92 % of control under setting [7] and 95 % of control under setting [9].
With `CCCc1nc2c(nc1C)C(=O)C=CC2=O`, the T/C (dose: 9.5 mg/kg/injection, schedule: Q01DX001 (ip), vehicle: other) was 98 % of control.
